Where a name gives a salt, the structure may show the parent alone.

In assay [1] the test system is HeLa cells. Put plainly: Cell viability assay 1: oxidative stress (menadione)-induced cell death in non-neuronal cells. It counts as cell-based. The conditions noted are these: pre-treatment 2.5, 5, 10 μM for 24 h; menadione 20-80 μM for 4 h; AlamarBlue; versus DMSO alone; FIG. 1. The method, then:
HeLa cells (1.0×10^6) were plated in 75 cm^2 flask and were cultured in the presence of 5% CO2 at 37° C. for 16 hours. Bromocriptine mesylate in DMSO was then added to the medium at the final concentrations of 2.5, 5 and 10 μM. The amount of DMSO used in each samples were adjusted to that used in the 10 μM sample. Cells were cultured for additional 24 hours (bromocriptine mesylate treatment). As a negative control, DMSO without bromocriptine mesylate was added. Menadione was then added to the HeLa cells treated with bromocriptine mesylate at the final concentrations of 0, 20, 40, 60 and 80 μM and the cells were further incubated in 5% CO2, at 37° C. (oxidative stress treatment). As a negative control, 0.1% Triton X-100/DMEM/10% FBS was added in place of menadione. After 4 hours of oxidative stress treatment, the medium was replaced with that containing AlamarBlue, and the cell culture was resumed in 5% CO2, at 37° C. After 16 hours of incubation, the number of viable cells was counted by measuring the fluorescence at excitation wave length 530 nm/emission wave length 580 nm, using the fluorescence plate reader.
The X-axis of the graph represents menadione concentration (μM), while the Y-axis of the graph represents cell viability (%). The Y-axis values under each condition are shown as viability relative to the no menadione treatment (0 μM) control which is set at 100%.

Assay [2] deals with ALS-SOD1^H46R mouse. Description: Efficacy test in vivo: motor function in vertical climb test. Particulars: 10 mg/kg i.p. once a day from onset of symptoms; n=5; non-administered group deteriorated significantly; FIG. 3. The protocol:
(§1) In this test, ALS-SOD1^H46R mouse carrying the mutation in the SOD1 gene (SOD1^H46R) (ALS1) was used. The mice were housed at 23° C. with a 12 hr light/dark cycle. Bromocriptine mesylate was suspended in 0.5% carboxymethylcellulose sodium (CMC-Na). The administration of bromocriptine mesylate was initiated when the neurological symptoms was first observed (first manifestation of the illness) in the ALS-SOD1^H46R mouse in the balance beam test. The dosage of bromocriptine mesylate was 10 mg or 1 mg per 1 kg of body weight in each of the animals, and administered by intraperitoneal injection once a day until the animals died (group treated with bromocriptine mesylate). As the negative control, the mice were administered with 0.5% CMC-Na (5 ml/kg) (group not treated with bromocriptine mesylate). Balance beam test (stainless beam: 50 cm long, 0.9 cm wide) was employed to evaluate the appearance of neurological symptoms. The evaluation of symptoms was carried out in 5 grades. Grade 3 was considered to be the first manifestation of the symptoms. The evaluation criteria used are shown below.
The motor functions of mice in bromocriptine mesylate administered group and non-administered group were evaluated by vertical climb test (stainless bar: 50 cm long, 0.9 cm wide). […] The best score among the 5 test results was recorded as the motor function value. […]

Assay [3] relates to differentiated SH-SY5Y cells. Put plainly: Cell viability assay 2: oxidative stress (menadione)-induced cell death in differentiated neuronal cells. It counts as cell-based, human. Particulars: retinoic acid-differentiated cells; pre-treatment 5, 10, 20, 40 μM for 24 h; menadione 20-50 μM for 4 h; AlamarBlue; versus DMSO alone; FIG. 2. The method, then:
SH-SY5Y cells were suspended in DMEM supplemented with 10% FBS, were plated at 1.0×10^4 cells/well in 96 well microtiter plate, and were incubated in 5% CO2 at 37° C. for 24 hours. The medium was then replaced with DMEM supplemented with 10% FBS and 10 μM all-trans retinoic acid (RA) (DMEM/FBS/RA), and after 5 days, bromocriptine mesylate in DMSO was added to the medium at the final concentrations of 5, 10, 20 and 40 μM. The amount of DMSO used in each samples were adjusted to that used in the 40 μM sample. The cells were cultured for additional 24 hours (bromocriptine mesylate treatment). As a negative control, DMSO without bromocriptine mesylate was added. Menadione was then added to the SH-SY5Y cells treated either with DMSO alone or bromocriptine mesylate at the final concentrations of 0, 20, 30, 40, and 50 μM, and cultured in 5% CO2 at 37° C. (oxidative stress treatment). As a negative control, 0.1% Triton X-100/DMEM/10% FBS was added. After 4 hours of oxidative stress treatment, the medium was replaced with that containing AlamarBlue, and the cell culture was resumed in 5% CO2, at 37° C. After 16 hours of incubation, the number of viable cells was counted by measuring the fluorescence at excitation wave length 530 nm/emission wave length 580 nm, using the fluorescence plate reader. […]

Assay [4] has as its system ALS-SOD1^H46R mouse. Put plainly: Efficacy test in vivo: survival after the onset of the disease. Particulars: i.p. once a day from onset, non-administered group 27.8±2.1 day, FIG. 4. The protocol:
as §1

Take `CC(C)C[C@H]1C(=O)N2CCC[C@H]2[C@]2(O)O[C@](NC(=O)[C@@H]3C=C4c5cccc6[nH]c(Br)c(c56)C[C@H]4N(C)C3)(C(C)C)C(=O)N12` [bromocriptine mesylate]: the “viabilities of HeLa cells exposed to oxidative stress by menadione” value in assay [1] is on record as “increased depending on the concentration of bromocriptine mesylate”. For the same molecule, in assay [2], the “motor function (vertical climb test) at 21 weeks of age” value is listed as “largely unchanged”. Besides, the “viabilities of SH-SY5Y cells exposed to oxidative stress by menadione” value in assay [3] is reported as “increased depending on the concentration of bromocriptine mesylate”. The “overall survival after the onset of the disease” value in assay [4] (1 mg/kg, n=4) amounted to 35.3 ± 6.0 days; in assay [4] (10 mg/kg, n=5) it was 38.0 ± 2.9 days.

The values are drawn from patent US20110105517A1, “THERAPEUTIC AGENT FOR AMYOTROPHIC LATERAL SCLEROSIS” (priority 2008, published 2011).
